Where two headings read alike, the source gives them in different places.
Experiments:
[1] = tested on: ovarian cancer cells (PA-1); assay: Cancer cell line growth inhibition (SRB assay); assay type: cell-based; conditions: read-out: Cancer Cell Line GI50 Range PA-1
[2] = tested on: colon cancer cells (HCT116); assay: Cancer cell line growth inhibition (SRB assay); assay type: cell-based; conditions: Homo sapiens, HCT-116, read-out: Cancer Cell Line GI50 Range HCT116
human TTK = target: T1, human TTK (Homo sapiens, UniProt P33981); assay: TTK inhibition assay (indirect ELISA); assay type: biochemical; conditions: read-out: TTK IC50 Range
T1 construct: amino terminal GST fusion of full length human TTK; purchased Invitrogen
T1 sequence (P33981 1-857): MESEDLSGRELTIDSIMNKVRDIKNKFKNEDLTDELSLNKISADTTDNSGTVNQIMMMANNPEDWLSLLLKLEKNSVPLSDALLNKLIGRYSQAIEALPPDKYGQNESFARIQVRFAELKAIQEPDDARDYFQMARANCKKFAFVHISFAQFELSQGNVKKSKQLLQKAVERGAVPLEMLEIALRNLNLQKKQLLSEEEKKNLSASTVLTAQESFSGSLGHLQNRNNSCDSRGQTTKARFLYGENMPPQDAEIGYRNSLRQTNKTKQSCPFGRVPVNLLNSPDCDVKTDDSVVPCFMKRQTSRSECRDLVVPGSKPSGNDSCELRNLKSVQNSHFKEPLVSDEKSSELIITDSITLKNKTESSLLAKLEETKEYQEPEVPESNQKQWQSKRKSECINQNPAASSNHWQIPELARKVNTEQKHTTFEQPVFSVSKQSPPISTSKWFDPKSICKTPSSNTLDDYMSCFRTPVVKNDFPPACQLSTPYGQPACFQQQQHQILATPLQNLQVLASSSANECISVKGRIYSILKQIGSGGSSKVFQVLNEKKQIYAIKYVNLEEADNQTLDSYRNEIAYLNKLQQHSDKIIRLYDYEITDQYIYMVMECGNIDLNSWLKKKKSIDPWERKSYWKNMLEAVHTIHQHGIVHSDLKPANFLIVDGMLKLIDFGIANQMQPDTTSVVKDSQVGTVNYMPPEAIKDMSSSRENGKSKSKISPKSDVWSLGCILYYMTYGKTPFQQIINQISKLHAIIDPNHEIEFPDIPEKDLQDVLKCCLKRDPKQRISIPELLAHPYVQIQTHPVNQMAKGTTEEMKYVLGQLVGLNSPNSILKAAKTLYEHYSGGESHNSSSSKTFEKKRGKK

[3] = PA-1 ovarian cancer cells, SRB assay
[4] = HCT116 colon cancer cells, SRB assay

Structure (SMILES): O=C(NCC1(N2CCOCC2)CCCC1)c1ccc2[nH]nc(-c3ccc(O[C@@H]4CCC[C@H](O)C4)cc3)c2c1 (relative stereo) [Example A496, rel-3-(4-(((1R,3S)-3-hydroxycyclohexyl)oxy)phenyl)-N-((1-morpholinocyclopentyl)methyl)-1H-indazole-5-carboxamide]
- GI50 [1, 3]: 100 to 500 nM
- GI50 [2, 4]: 100 to 500 nM
- IC50 (human TTK): < 100 nM

Structure (SMILES): O=C(NCC1(N2CCOCC2)CCCCC1)c1ccc2[nH]nc(-c3ccc(O[C@@H]4CCC[C@H](O)C4)cc3)c2c1 (relative stereo) [Example A497, cis-3-(4-(((1R,3S)-3-hydroxycyclohexyl)oxy)phenyl)-N-((1-morpholinocyclohexyl)methyl)-1H-indazole-5-carboxamide]
- GI50 [1, 3]: 100 to 500 nM
- GI50 [2, 4]: 100 to 500 nM
- IC50 (human TTK): < 100 nM

Structure (SMILES): O=C(Nc1ccc2[nH]nc(-c3ccc(NC4CCC(O)CC4)cc3)c2c1)C(c1ccsc1)N1CCCC1 (single isomer, unassigned) [Example A105, rel-N-(3-(4-(((1r,4r)-4-hydroxycyclohexyl)amino)phenyl)-1H-indazol-5-yl)-2-(pyrrolidin-1-yl)-2-(thiophen-3-yl)acetamide]
- GI50 [1, 3]: < 100 nM
- GI50 [2, 4]: < 100 nM
- IC50 (human TTK): < 100 nM

Structure (SMILES): O=C(Nc1ccc2[nH]nc(-c3ccc(CN4CCOCC4)cc3)c2c1)C1CCCc2ccccc21 (stereo not shown) [Example A23, N-(3-(4-(morpholinomethyl)phenyl)-1H-indazol-5-yl)-1,2,3,4-tetrahydronaphthalene-1-carboxamide]
- GI50 [2, 4]: > 500 nM
- IC50 (human TTK): 100 to 500 nM

Structure (SMILES): O=C(Nc1ccc2[nH]nc(-c3ccc(N4CCOCC4)nc3)c2c1)C(c1ccsc1)N1CCCC1 (stereo not shown) [Example A52, N-(3-(6-morpholinopyridin-3-yl)-1H-indazol-5-yl)-2-(pyrrolidin-1-yl)-2-(thiophen-3-yl)acetamide]
- GI50 [2, 4]: 100 to 500 nM
- IC50 (human TTK): < 100 nM

Structure (SMILES): O=C(NC(c1ccccc1)C1CC1)c1ccc2[nH]nc(-c3ccc(N4CCOCC4)nc3)c2c1 (stereo not shown) [Example A54, N-(cyclopropyl(phenyl)methyl)-3-(6-morpholinopyridin-3-yl)-1H-indazole-5-carboxamide]
- GI50 [2, 4]: > 500 nM
- IC50 (human TTK): < 100 nM

Structure (SMILES): CN1CCC(Oc2ccc(-c3n[nH]c4ccc(NC(=O)Nc5ccccc5F)cc34)cc2)CC1 [Example A56, 1-(2-fluorophenyl)-3-(3-(4-((1-methylpiperidin-4-yl)oxy)phenyl)-1H-indazol-5-yl)urea]
- GI50 [2, 4]: > 500 nM
- IC50 (human TTK): 100 to 500 nM

Structure (SMILES): Cc1cc(-c2n[nH]c3ccc(NC(=O)C(c4ccsc4)N4CCCC4)cc23)ccc1N1CCOCC1 (stereo not shown) [Example A59, N-(3-(3-methyl-4-morpholinophenyl)-1H-indazol-5-yl)-2-(pyrrolidin-1-yl)-2-(thiophen-3-yl)acetamide]
- GI50 [2, 4]: > 500 nM
- IC50 (human TTK): 100 to 500 nM

Structure (SMILES): O=C(NC(c1ccccc1)C1CC1)c1ccc2[nH]nc(-c3cccc(N4CCOCC4)c3)c2c1 (stereo not shown) [Example A61, N-(cyclopropyl(phenyl)methyl)-3-(3-morpholinophenyl)-1H-indazole-5-carboxamide]
- GI50 [2, 4]: > 500 nM
- IC50 (human TTK): 100 to 500 nM

Structure (SMILES): Cc1cc(-c2n[nH]c3ccc(C(=O)NC(c4ccccc4)C4CC4)cc23)ccc1N1CCOCC1 (stereo not shown) [Example A64, N-(cyclopropyl(phenyl)methyl)-3-(3-methyl-4-morpholinophenyl)-1H-indazole-5-carboxamide]
- GI50 [2, 4]: > 500 nM
- IC50 (human TTK): 100 to 500 nM

Structure (SMILES): O=C(NC(c1ccccc1)C1CC1)c1ccc2[nH]nc(-c3ccc(N4CCOCC4)c(F)c3)c2c1 (stereo not shown) [Example A65, N-(cyclopropyl(phenyl)methyl)-3-(3-fluoro-4-morpholinophenyl)-1H-indazole-5-carboxamide]
- GI50 [2, 4]: > 500 nM
- IC50 (human TTK): 100 to 500 nM

Structure (SMILES): O=C(Nc1ccc2[nH]nc(-c3ccc(N4CCOCC4)cc3)c2c1)Nc1ccccc1Cl [Example A66, 1-(2-chlorophenyl)-3-(3-(4-morpholinophenyl)-1H-indazol-5-yl)urea]
- GI50 [2, 4]: > 500 nM
- IC50 (human TTK): > 500 nM

Structure (SMILES): COc1ccc(NC(=O)Nc2ccc3[nH]nc(-c4ccc(OC5CCN(C)CC5)cc4)c3c2)c(C)c1 [Example A81, 1-(4-methoxy-2-methylphenyl)-3-(3-(4-((1-methylpiperidin-4-yl)oxy)phenyl)-1H-indazol-5-yl)urea]
- GI50 [1, 3]: 100 to 500 nM
- GI50 [2, 4]: 100 to 500 nM
- IC50 (human TTK): 100 to 500 nM

Structure (SMILES): CN1CCN(C(=O)c2cccc(-c3n[nH]c4ccc(NC(=O)C(c5ccsc5)N5CCCC5)cc34)c2)CC1 (stereo not shown) [Example A96, N-(3-(3-(4-Methylpiperazine-1-carbonyl)phenyl)-1H-indazol-5-yl)-2-(pyrrolidin-1-yl)-2-(thiophen-3-yl)acetamide]
- GI50 [1, 3]: > 500 nM
- GI50 [2, 4]: > 500 nM
- IC50 (human TTK): > 500 nM

Structure (SMILES): O=C(NC(c1ccccc1)C1CC1)c1ccc2[nH]nc(-c3ccc(N[C@H]4CC[C@H](O)CC4)cc3)c2c1 (stereo partly drawn) [Example A106, trans-N-(cyclopropyl(phenyl)methyl)-3-(4-(((1r,4r)-4-hydroxycyclohexyl)amino)phenyl)-1H-indazole-5-carboxamide]
- GI50 [1, 3]: < 100 nM
- GI50 [2, 4]: < 100 nM
- IC50 (human TTK): < 100 nM

Structure (SMILES): CC(C)(C)OC(=O)N1CCC(Oc2ccc(-c3n[nH]c4ccc(NC(=O)C(c5ccsc5)N5CCCC5)cc34)cc2)CC1 (stereo not shown) [Example A115, tert-butyl 4-(4-(5-(2-(pyrrolidin-1-yl)-2-(thiophen-3-yl)acetamido)-1H-indazol-3-yl)phenoxy)piperidine-1-carboxylate]
- GI50 [1, 3]: > 500 nM
- GI50 [2, 4]: > 500 nM
- IC50 (human TTK): 100 to 500 nM

Structure (SMILES): Cc1ccccc1CC1(NC(=O)c2ccc3[nH]nc(-c4ccc(OC5CCN(C)CC5)cc4)c3c2)CC1 [Example A127, N-(1-(2-methylbenzyl)cyclopropyl)-3-(4-((1-methylpiperidin-4-yl)oxy)phenyl)-1H-indazole-5-carboxamide]
- GI50 [1, 3]: 100 to 500 nM
- GI50 [2, 4]: 100 to 500 nM
- IC50 (human TTK): < 100 nM

Structure (SMILES): O=C(NC(c1ccccc1)C1CC1)c1ccc2[nH]nc(-c3ccc(OCCn4ccnc4)cc3)c2c1 (stereo not shown) [Example A165, 3-(4-(2-(1H-imidazol-1-yl)ethoxy)phenyl)-N-(cyclopropyl(phenyl)methyl)-1H-indazole-5-carboxamide]
- GI50 [1, 3]: > 500 nM
- GI50 [2, 4]: > 500 nM
- IC50 (human TTK): < 100 nM

Structure (SMILES): O=C(NC(c1ccccc1)C(F)F)c1ccc2[nH]nc(-c3ccc(OC4CCN(C5COC5)CC4)cc3)c2c1 (stereo not shown) [Example A226, N-(2,2-difluoro-1-phenylethyl)-3-(4-((1-(oxetan-3-yl)piperidin-4-yl)oxy)phenyl)-1H-indazole-5-carboxamide]
- GI50 ([1]; Homo sapiens, PA-1): 100 to 500 nM
- GI50 [2]: 100 to 500 nM
- IC50 (human TTK): < 100 nM

Structure (SMILES): C[C@@H](O)CN1CCC(Oc2ccc(-c3n[nH]c4ccc(C(=O)N[C@H](c5ccccn5)C5CCCC5)cc34)cc2)CC1 [Example A230, N-((S)-cyclopentyl(pyridin-2-yl)methyl)-3-(4-((1-((R)-2-hydroxypropyl)piperidin-4-yl)oxy)phenyl)-1H-indazole-5-carboxamide]
- GI50 ([1]; Homo sapiens, PA-1): < 100 nM
- GI50 [2]: < 100 nM
- IC50 (human TTK): < 100 nM

Structure (SMILES): O=C(NCC1(N2CCCCC2)CCCCC1)c1ccc2[nH]nc(-c3ccc(N4CCOCC4)cc3)c2c1 [Example A446, 3-(4-morpholinophenyl)-N-((1-(piperidin-1-yl)cyclohexyl)methyl)-1H-indazole-5-carboxamide]
- GI50 [2, 4]: 100 to 500 nM
- IC50 (human TTK): 100 to 500 nM

Structure (SMILES): CN1CCN(C2(CNC(=O)c3ccc4[nH]nc(-c5ccc(N6CCOCC6)cc5)c4c3)CCCCC2)CC1 [Example A448, N-((1-(4-methylpiperazin-1-yl)cyclohexyl)methyl)-3-(4-morpholinophenyl)-1H-indazole-5-carboxamide]
- GI50 [2, 4]: 100 to 500 nM
- IC50 (human TTK): < 100 nM

Structure (SMILES): CN(C)C1(CNC(=O)c2ccc3[nH]nc(-c4ccc(N5CCOCC5)cc4)c3c2)CCCCC1 [Example A450, N-((1-(dimethylamino)cyclohexyl)methyl)-3-(4-morpholinophenyl)-1H-indazole-5-carboxamide]
- GI50 [2, 4]: > 500 nM
- IC50 (human TTK): > 500 nM

Structure (SMILES): C[C@@H]1CN(C2(CNC(=O)c3ccc4[nH]nc(-c5ccc(N6CCOCC6)cc5)c4c3)CCCCC2)C[C@H](C)O1 [Example A451, N((1-((2S,6R)-2,6-dimethylmorpholino)cyclohexyl)methyl)-3-(4-morpholinophenyl)-1H-indazole-5-carboxamide]
- GI50 [2, 4]: > 500 nM
- IC50 (human TTK): 100 to 500 nM

Structure (SMILES): C[C@@H]1CN(C2(CNC(=O)c3ccc4[nH]nc(-c5ccc(OC6CCN(C)CC6)cc5)c4c3)CCCCC2)C[C@H](C)O1 [Example A452, N-((1-((2S,6R)-2,6-dimethylmorpholino)cyclohexyl)methyl)-3-(4-((1-methylpiperidin-4-yl)oxy)phenyl)-1H-indazole-5-carboxamide]
- GI50 [2, 4]: > 500 nM
- IC50 (human TTK): < 100 nM

From patent US9580390B2, “Indazole compounds as kinase inhibitors and method of treating cancer with same” (University Health Network, priority 2011, dated 2017)
